Results as given in US7855259B2, “Method for producing melt-processable fluororesin” (Asahi Glass Company, Limited, priority 2005, dated 2010).

Assay: Measurement of 1-octanol/water partition coefficient (LogPOW) by HPLC, OECD Test Guideline 117
Type: physicochemical
Settings: for LogPOW: 1-octanol/water partition coefficient calculated from HPLC elution time, OECD Test Guideline 117, ODS column, acetonitrile/0.6 mass % HClO4 aq. 1/1, 40° C.; for bioaccumulation potential (indicated by LogPOW value as compared to APFO): judged from LogPOW compared to APFO
Method: In accordance with OECD Test Guideline 117, 1-octanol/water partition coefficient (LogPOW) of a fluorinated emulsifier was measured by using HPLC (high performance liquid chromatography).
Conditions for the measurement were as follows: column: TOSOH ODS-120T column (φ 4.6 mm×250 mm), eluent: acetonitrile/0.6 mass % of HClO4 aqueous solution=1/1 (vol/vol %), flow rate: […], sample amount: 300 μL, column temperature: 40° C., and detection light: UV 210 nm (WO2005-42593).
HPLC was carried out on standard substances (heptanoic acid, octanoic acid, nonanoic acid and decanoic acid) having known 1-octanol/water partition coefficients, and a calibration curve was prepared from the respective elution times and octanol/water partition coefficients of the respective standard substances. Based on this calibration curve, a value of partition coefficient (LogPOW) between 1-octanol and water was calculated from the elution time by HPLC of the fluorinated emulsifier.
Further, in general, in order to judge whether or not a chemical substance is apt to be accumulated in a living organism, a testing method for measurement of a partition coefficient (LogPOW) between 1-octanol and water, is stipulated. As the testing method, in addition to “Partition Coefficient (1-octanol/water) Shake Flask Method” as stipulated in OECD test guideline 107 and in Japanese Industrial Standards Z 7260-107 (2000), a HPLC method (high-performance liquid chromatography) as stipulated and published in OECD Test Guideline 117, is used. A compound having a large partition coefficient value has a large tendency for bioaccumulation, and a compound having a small value means a small tendency for bioaccumulation. In a case where the LogPOW value is less than 3.5, it is considered proper to judge that it is not a high-concentration, and bioaccumulation is also considered to be small.

## N.O=C(O)C(F)(F)OC(F)(F)C(F)(F)OC(F)(F)C(F)(F)F [CF3CF2OCF2CF2OCF2COONH4]
  LogPOW: 3.13
  bioaccumulation potential (indicated by LogPOW value as compared to APFO): low

## N.O=C(O)C(F)(F)C(F)(F)C(F)(F)C(F)(F)C(F)(F)C(F)(F)C(F)(F)F [CF3(CF2)6COONH4, ammonium perfluorooctanoate]
  LogPOW: 3.67

## N.O=C(O)C(F)(OC(F)(F)C(F)(OC(F)(F)C(F)(F)F)C(F)(F)F)C(F)(F)F (centres unmarked) [CF3CF2OCF(CF3)CF2OCF(CF3)COONH4]
  LogPOW: 4.03
  bioaccumulation potential (indicated by LogPOW value as compared to APFO): high
